Source: patent publication US20250003989A1, “METHODS FOR TAUOPATHY DIAGNOSIS AND TREATMENT” (The Children`s Medical Center Corporation, priority 2021, published 2025)

Test system: naïve Tau
Experiment: In vitro second generation seeding without heparin, ThT assay
Settings: equimolar effective concentration of heparin as contained in the catalytic amount of 2b seed
Experimental: Seeds were generated following the procedure described above at 50 μM protein concentration. The sample was vigorously pipetted to evenly disperse fibrils, and was added at a 2.5 mol % (1.25 μM protein concentration) to a 50 μM sample of new protein. Aggregation was followed with ThioflavinT assays. Thioflavin T (ThT) assays for Beta-sheet content were conducted with 50 μM protein content, and […] ThT in a 384-well Corning plate. A BioTek synergy2 plate reader was used with temperature control set at 37° C.

Sequence of naïve Tau (as listed by the source): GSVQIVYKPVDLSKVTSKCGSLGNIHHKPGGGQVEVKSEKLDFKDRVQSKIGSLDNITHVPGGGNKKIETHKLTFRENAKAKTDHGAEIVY

For heparin, the “ThT fluorescence, heparin-only control” value was “no detectable ThT fluorescence”.
